# Test results taken from article PMC7031696 (Cell chemical biology, 2019).
# Like-named read-outs stand apart in the source and are kept apart here.
# Key:
# [1] = system: Plasmodium falciparum 3D7-A10 parasites; assay: Stage specificity assay (8-h exposure of synchronized stages, IC50^8h); type: cell-based; conditions: for IC50: Plasmodium falciparum
# [2] = system: asynchronous 3D7-A10 parasite cultures; assay: Standard 72-h exposure asexual blood stage susceptibility assay (IC50^72h); type: cell-based, Plasmodium falciparum; conditions: Plasmodium falciparum, 3D7, 72 h, read-out: Overall (72hr assay) Mean IC50 (IC50^72h)
# [3] = system: 3D7-MR4 trophozoite parasite-infected RBCs; assay: Metabolomic profiling (hydrophilic metabolite changes, UHPLC-MS); type: cell-based, Plasmodium falciparum
compound,measurement,setting,value
Cc1ccc(Oc2ncccc2C(=O)Nc2cccc3cccnc23)c(C)c1 [MMV020746],Ratio lowest IC50 8hr/IC50 72hr,[1]; 3D7-A10,221.5
same,IC50,"[1]; 3D7, read-out: Early rings IC50 (IC50^8h), 8-h exposure 0–8 hr, bound given in μM",> 25 µM
same,IC50,"[1]; 3D7, read-out: Early trophozoites Mean IC50 (IC50^8h), 8-h exposure 16–24 hr, 3D7-A10, survival at 60 h",12.6 µM
same,IC50,"[1]; 3D7, read-out: Late rings IC50 (IC50^8h), 8-h exposure 8–16 hr, bound given in μM",> 25 µM
same,IC50,"[1]; 3D7, read-out: Late trophozoites IC50 (IC50^8h), 8-h exposure 24–32 hr, bound given in μM",> 25 µM
same,IC50,"[1]; 3D7, read-out: Schizonts IC50 (IC50^8h), 8-h exposure 32–40 hr, bound given in μM",> 25 µM
same,IC50^8h relative to IC50^72h value,[1]; most susceptible stages,> 28 fold
same,IC50,[2],0.0568 µM
same,peptide levels (hemoglobin catabolism signature),"[3]; 10 × IC50^72h, 2.5 hr, trophozoites",decreased peptide levels
same,Log2(fold changes) 3-phosphoglycerate,"[3]; metabolite 3-phosphoglycerate, log2 fold change",-0.8487
same,Log2(fold changes) 4-Pyridoxic acid,"[3]; metabolite 4-Pyridoxic acid, log2 fold change",-0.4495
same,Log2(fold changes) 4-aminobutyrate,"[3]; metabolite 4-aminobutyrate, log2 fold change",-0.1236
same,Log2(fold changes) 4-phosphopantetheine,"[3]; metabolite 4-phosphopantetheine, log2 fold change",0.0000
same,Log2(fold changes) 4-phosphopantothenate,"[3]; metabolite 4-phosphopantothenate, log2 fold change",-0.7722
same,Log2(fold changes) 5-aminopentanoic acid,"[3]; metabolite 5-aminopentanoic acid, log2 fold change",0.0000
same,Log2(fold changes) 5-methyl-THF,"[3]; metabolite 5-methyl-THF, log2 fold change",0.0000
same,Log2(fold changes) 5-phosphoribosyl-1-pyrophosphate,"[3]; metabolite 5-phosphoribosyl-1-pyrophosphate, log2 fold change",0.0000
same,Log2(fold changes) 6-phospho-D-gluconate,"[3]; metabolite 6-phospho-D-gluconate, log2 fold change",-0.3888
same,Log2(fold change) HVDD,[3]; metabolite HVDD,-4.2936
same,Log2(fold change) Hydroxyisocaproic acid,[3]; metabolite Hydroxyisocaproic acid,0.0000
same,Log2(fold change) IDP,[3]; metabolite IDP,0.0000
same,Log2(fold change) IMP,[3]; metabolite IMP,-0.0604
same,Log2(fold change) Inositol,[3]; metabolite Inositol,0.0000
same,Log2(fold change) Isopentyl-PP,[3]; metabolite Isopentyl-PP,-0.6932
same,Log2(fold change) L-arginino-succinate,[3]; metabolite L-arginino-succinate,-0.2156
same,Log2(fold change) LD,[3]; metabolite LD,0.1860
same,Log2(fold change) Myristoyl/tetradecanoyl-CoA,[3]; metabolite Myristoyl/tetradecanoyl-CoA,0.0000
same,Log2(fold change) N-Acetyl-L-alanine,[3]; metabolite N-Acetyl-L-alanine,0.0990
same,Log2(fold change) N-acetyl-L-ornithine,[3]; metabolite N-acetyl-L-ornithine,-1.5863
same,Log2(fold change) N-acetyl-glucosamine-1/6-phosphate,[3]; metabolite N-acetyl-glucosamine-1/6-phosphate,0.3354
same,Log2(fold change) N-acetyl-glutamate,[3]; metabolite N-acetyl-glutamate,-0.0291
same,Log2(fold change) N-acetyl-glutamine,[3]; metabolite N-acetyl-glutamine,0.3326
same,Log2(fold change) N-carbamoyl-L-aspartate,[3]; metabolite N-carbamoyl-L-aspartate,-0.0111
same,Log2(fold change) NAD+,[3]; metabolite NAD+,-0.2290
same,Log2(fold change) NADH,[3]; metabolite NADH,3.2383
same,Log2(fold change) NADP+,[3]; metabolite NADP+,-0.2621
same,Log2(fold change) NADPH,[3]; metabolite NADPH,2.9387
same,Log2(fold change) O-acetyl-L-serine,[3]; metabolite O-acetyl-L-serine,-0.1299
same,Log2(fold change) Octoluse 8/1P,[3]; metabolite Octoluse 8/1P,-0.0750
same,Log2(fold change) Octoluse Bisphosphate,[3]; metabolite Octoluse Bisphosphate,0.1477
same,Log2(fold change) PD,[3]; metabolite PD,-2.6591
same,Log2(fold change) PE,[3]; metabolite PE,-2.3902
same,Log2(fold change) PEE,[3]; metabolite PEE,-2.3026
same,Log2(fold change) PEEK,[3]; metabolite PEEK,-2.5604
same,Log2(fold change) PVNF,[3]; metabolite PVNF,-4.8059
same,Log2(fold change) Pyroglutamic acid,[3]; metabolite Pyroglutamic acid,0.1917
same,Log2(fold change) Pyrophosphate,[3]; metabolite Pyrophosphate,0.0000
same,Log2(fold change) Ribose-5-phosphate,[3]; metabolite Ribose-5-phosphate,-0.7820
same,Log2(fold change) S-adenosyl-L-homocysteine,[3]; metabolite S-adenosyl-L-homocysteine,-0.0800
same,Log2(fold change) S-adenosyl-L-methioninamine,[3]; metabolite S-adenosyl-L-methioninamine,-2.2715
same,Log2(fold change) S-adenosyl-L-methionine,[3]; metabolite S-adenosyl-L-methionine,0.0000
same,Log2(fold change) S-methyl-5'-thioadenosine,[3]; metabolite S-methyl-5'-thioadenosine,0.5248
same,Log2(fold change) SD,[3]; metabolite SD,-1.2335
same,Log2(fold change) SDL,[3]; metabolite SDL,0.0000
same,Log2(fold change) SID,[3]; metabolite SID,-1.9821
same,Log2(fold change) Sedoheptulose bisphosphate,[3]; metabolite Sedoheptulose bisphosphate,-0.9337
same,Log2(fold change) Thiamine pyrophosphate,[3]; metabolite Thiamine pyrophosphate,-0.1414
same,Log2(fold changes) UDP-D-glucose,"[3]; metabolite UDP-D-glucose, log2 fold change",0.0347
same,Log2(fold changes) UDP-D-glucuronate,"[3]; metabolite UDP-D-glucuronate, log2 fold change",-0.1265
same,Log2(fold changes) UDP-N-acetyl-glucosamine,"[3]; metabolite UDP-N-acetyl-glucosamine, log2 fold change",-0.1353
same,Log2(fold changes) UDP,"[3]; metabolite UDP, log2 fold change",-0.5234
same,Log2(fold changes) UMP,"[3]; metabolite UMP, log2 fold change",0.1786
same,Log2(fold changes) UTP,"[3]; metabolite UTP, log2 fold change",0.0000
same,Log2(fold change) hydroxyphenylpyruvate,[3]; metabolite hydroxyphenylpyruvate,0.0000
same,Log2(fold change) hydroxyproline/Aminolevulinate,[3]; metabolite hydroxyproline/Aminolevulinate,-0.2593
same,Log2(fold change) hypoxanthine,[3]; metabolite hypoxanthine,0.0518
same,Log2(fold change) indole,[3]; metabolite indole,0.0000
same,Log2(fold change) inosine,[3]; metabolite inosine,-0.1327
same,Log2(fold change) isoleucine,[3]; metabolite isoleucine,0.0000
same,Log2(fold change) lactate,[3]; metabolite lactate,-0.6990
same,Log2(fold change) leucine,[3]; metabolite leucine,0.0000
same,Log2(fold change) lysine,[3]; metabolite lysine,-2.2531
same,Log2(fold change) malate,[3]; metabolite malate,-0.6987
same,Log2(fold change) maleic acid,[3]; metabolite maleic acid,-0.7709
same,Log2(fold change) methionine,[3]; metabolite methionine,-0.0286
same,Log2(fold change) myo-inositol,[3]; metabolite myo-inositol,-0.7655
same,Log2(fold change) nicotinamide mononucleotide,[3]; metabolite nicotinamide mononucleotide,-0.5765
same,Log2(fold change) nicotinate,[3]; metabolite nicotinate,-0.1328
same,Log2(fold change) ornithine,[3]; metabolite ornithine,-0.3857
same,Log2(fold change) orotate,[3]; metabolite orotate,-0.1387
same,Log2(fold change) orotidine-5'-phosphate,[3]; metabolite orotidine-5'-phosphate,0.0782
same,Log2(fold change) oxaloacetate,[3]; metabolite oxaloacetate,-0.6442
same,Log2(fold change) p-aminobenzoate,[3]; metabolite p-aminobenzoate,0.0000
same,Log2(fold change) p-hydroxybenzoate,[3]; metabolite p-hydroxybenzoate,0.0000
same,Log2(fold change) pantothenate,[3]; metabolite pantothenate,-0.1112
same,Log2(fold change) phenylalanine,[3]; metabolite phenylalanine,-0.4829
same,Log2(fold change) phenylpyruvate,[3]; metabolite phenylpyruvate,0.0000
same,Log2(fold change) phosphoenolpyruvate,[3]; metabolite phosphoenolpyruvate,-0.5858
same,Log2(fold change) prephenate,[3]; metabolite prephenate,-0.3824
same,Log2(fold change) proline,[3]; metabolite proline,-0.5702
same,Log2(fold change) pyridoxine,[3]; metabolite pyridoxine,-0.1642
same,Log2(fold change) pyruvate,[3]; metabolite pyruvate,-1.5001
same,Log2(fold change) riboflavin,[3]; metabolite riboflavin,0.4413
same,Log2(fold change) ribose,[3]; metabolite ribose,-0.0174
same,Log2(fold change) ribose-phosphate,[3]; metabolite ribose-phosphate,-1.1321
same,Log2(fold change) ribulose-5-phosphate,[3]; metabolite ribulose-5-phosphate,-0.7375
same,Log2(fold change) serine,[3]; metabolite serine,-0.1379
same,Log2(fold change) sn-glycerol-3-phosphate,[3]; metabolite sn-glycerol-3-phosphate,0.0529
same,Log2(fold change) succinate/Methylmalonic acid,[3]; metabolite succinate/Methylmalonic acid,-0.5504
same,Log2(fold change) succinyl-CoA/methylmalonyl-CoA,[3]; metabolite succinyl-CoA/methylmalonyl-CoA,0.0000
same,Log2(fold change) taurine,[3]; metabolite taurine,0.3831
same,Log2(fold change) thiamine,[3]; metabolite thiamine,-0.5873
same,Log2(fold change) threonine/homoserine,[3]; metabolite threonine/homoserine,-0.5084
same,Log2(fold change) thymidine,[3]; metabolite thymidine,0.0000
same,Log2(fold changes) thymine,"[3]; metabolite thymine, log2 fold change",0.0000
same,Log2(fold changes) trehalose-6-Phosphate,"[3]; metabolite trehalose-6-Phosphate, log2 fold change",0.0000
same,Log2(fold changes) tryptophan,"[3]; metabolite tryptophan, log2 fold change",-0.7516
same,Log2(fold changes) tyrosine,"[3]; metabolite tyrosine, log2 fold change",-0.2515
same,Log2(fold changes) uridine,"[3]; metabolite uridine, log2 fold change",0.0000
